Experimental data reported in US9206246B2, “Heparin/heparan sulfate-dependent inhibitors of activated protein C and uses thereof in treating hemophilic disorders” (Academia Sinica, priority 2012, dated 2015).
Several values for one entry are separate records, joined by “and”; a condition that tells them apart may be missing. Equal entries are not always repeated.

Assays:
thrombin = biological target: T1, thrombin (Homo sapiens, UniProt P00734); test: Selectivity profile, amidolytic activity of thrombin; assay type: biochemical
T1 construct: thrombin, plasma kallikrein and plasmin were obtained; purchased Haematologic Technologies
Protocol: (§1) In each of these experiments, the molar ratio of protease active site to inhibitor was 1:1. The final concentrations of these proteases and their respective substrates were as follows: FXIIa (20 nM)/S-2302 (0.2 mM), FXIa (2.5 nM)/S-2366 (0.2 mM), FXa (10 nM)/S-2222 (1.3 mM), FIXa (200 nM)/Spectrozyme FIXa (1.3 mM), FVIIa (100 nM)/S-2288 (1.3 mM), thrombin (5 nM)/T-1637 (0.2 mM), kallikrein (5 nM)/S-2302 (0.2 mM), plasmin (20 nM)/S-2251 (0.2 mM), tPA (80 nM)/Spectrozyme tPA (0.2 mM), uPA (100 nM)/S-2288 (1.3 mM), APC (10 nM)/Spectrozyme PCa (0.2 mM) and trypsin (5 nM)/S-2222 (0.2 mM). Results shown are means±SD of at least three experiments.
(§2) DrKIn-I, with or without heparin, was screened for its inhibitory activity against trypsin and also against serine proteases in the coagulation cascade (FXIIa, FXIa, FXa, FIXa, FVIIa, thrombin and kallikrein) and in the fibrinolytic system (plasmin, tPA and uPA). The amidolytic activities of these proteases were determined in the presence or absence of equimolar concentrations of DrKIn-I using their respective chromogenic substrates.

factor Xa (FXa) = biological target: T2, factor Xa (FXa) (Homo sapiens, UniProt P00742); test: Selectivity profile, amidolytic activity of FXa; assay type: biochemical
T2 construct: factor Xa (FXa); purchased Haematologic Technologies
T2 sequence (P00742 235-488 limits assumed): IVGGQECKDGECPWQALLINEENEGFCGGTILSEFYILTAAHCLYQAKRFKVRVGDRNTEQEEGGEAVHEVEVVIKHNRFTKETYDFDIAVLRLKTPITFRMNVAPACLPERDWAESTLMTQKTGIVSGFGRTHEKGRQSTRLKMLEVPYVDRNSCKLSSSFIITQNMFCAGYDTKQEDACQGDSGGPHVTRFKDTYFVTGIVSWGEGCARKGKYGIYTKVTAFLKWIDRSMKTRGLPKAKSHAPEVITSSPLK
T2 sequence (P00742 41-179 limits assumed): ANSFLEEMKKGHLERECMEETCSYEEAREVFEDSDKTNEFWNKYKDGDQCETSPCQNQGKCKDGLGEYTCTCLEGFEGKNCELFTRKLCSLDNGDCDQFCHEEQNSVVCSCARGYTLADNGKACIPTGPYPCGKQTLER
Protocol: as §1, §2

[1] = tested on: endogenously generated APC in normal plasma; test: Thrombin generation assay in normal plasma; assay type: biochemical; details: 200 nM DrKIn-I, 100 nM TM, 2 μg/ml heparan sulfate
Protocol: Thrombin generation in normal (A) and protein C-deficient (B) plasma. Experiments were performed in the presence of heparan sulfate (2 μg/ml). Solid lines represent thrombin generation in the presence of 100 nM thrombomodulin (TM) and varying concentrations of DrKIn-I (●, 0 nM; ▪, 40 nM; ▴, 80 nM; ◯, 200 nM). Dashed lines represent thrombin generation in the absence of TM and DrKIn-I.
(§3) Briefly, 80 μl of either normal plasma, protein C-deficient plasma, FVIII-deficient plasma or FIX deficient plasma containing 2 μM corn trypsin inhibitor, 2 μg/ml heparan sulfate (four disaccharide units long), 30 μM DOPC/DOPS/DOPE (60:20:20) and 100 nM recombinant TM was incubated with 20 μl of 500-fold diluted TF solution (Innovin; Dade Behring) in the absence or presence of the indicated concentrations of DrKIn-I. Following incubation for 3 minutes at 37° C., thrombin generation was initiated by the dispensation of 20 μl of 2.5 mM fluorogenic substrate (Z-Gly-Gly-Arg-AMC.HCl) dissolved in 0.15 M NaCl, 60 mg/ml BSA and 100 mM CaCl2. Measurements were taken at 1 minute intervals on a SpectraMax M2^e Microplate Reader using an excitation wavelength of 360 nm and an emission wavelength of 460 nm. In some assays, experiments were performed in the absence of thrombomodulin. Results were evaluated using the Technothrombin TGA software (Technoclone).

FVIII-deficient plasma = test: Thrombin generation assay in FVIII-deficient plasma; assay type: biochemical; details: 100 nM TM, 2 μg/ml heparan sulfate
Protocol: (§4) (A) Representative thrombin generation curves in FVIII-deficient and FIX-deficient plasma performed in the presence of heparan sulfate (2 μg/ml), TM (100 nM) and varying concentrations of DrKIn-I (●, 0 nM; ▪, 20 nM; ▴, 40 nM; ▾, 80 nM; ◯, 200 nM). Dashed lines represent thrombin generation in the absence of TM and DrKIn-I. (B-C) Activity in FVIII-deficient (B) and FIX-deficient (C) plasma. Left panels show ETP; right panels, peak thrombin. For comparison, dashed lines represent the activity of normal plasma containing TM and heparan sulfate in the absence of the inhibitor. Results are represented as means±SEM of at least three independent experiments.
as §3, with “Measurements were taken at 1 minute intervals on a SpectraMax M2^e Microplate Reader using an excitation wavelength of 360 nm and an emission wavelength of 460 nm. In some assays, experiments were performed in the absence of thrombomodulin.” left out

FIX-deficient plasma = test: Thrombin generation assay in FIX-deficient plasma; assay type: biochemical; details: 100 nM TM, 2 μg/ml heparan sulfate
Protocol: as §4
as §3, with “Measurements were taken at 1 minute intervals on a SpectraMax M2^e Microplate Reader using an excitation wavelength of 360 nm and an emission wavelength of 460 nm. In some assays, experiments were performed in the absence of thrombomodulin.” left out

[2] = tested on: APC in FIX-deficient plasma; test: APTT-based APC resistance assay in FIX-deficient plasma; assay type: biochemical; details: 50-200 nM DrKIn-I, 40 nM APC, 2 μg/ml heparan sulfate
Protocol: APTT-based clotting times were measured in normal, FVIII-deficient and FIX-deficient plasma containing 2 μg/ml heparan sulfate in the presence or absence of 40 nM APC and the indicated concentrations of DrKIn-I. Results shown are means±S.D. of at least three experiments.
50 μl of normal plasma, FVIII-deficient plasma or FIX-deficient plasma supplemented with 2 μg/ml heparan sulfate (four disaccharide units long) was exposed to APC (40 nM) and varying concentrations of DrKIn-I (50-200 nM). 50 μl of activated partial thromboplastin (APTT) reagent (HYPHEN Biomed) was added and incubated for 1 minute at 37° C. Finally, clotting was initiated by adding 50 μl of 20 mM CaCl2. Coagulation times, which reflect the activities of APC, were recorded on a coagulometer (Hemostasis Analyzer KC-1; Sigma Diagnostics).

APC = APC (Homo sapiens, UniProt P04070); test: Surface plasmon resonance, immobilized APC; assay type: binding; set-up: purchased Haematologic Technologies; details: no heparin
Sequence of APC (P04070 212-450 limits assumed): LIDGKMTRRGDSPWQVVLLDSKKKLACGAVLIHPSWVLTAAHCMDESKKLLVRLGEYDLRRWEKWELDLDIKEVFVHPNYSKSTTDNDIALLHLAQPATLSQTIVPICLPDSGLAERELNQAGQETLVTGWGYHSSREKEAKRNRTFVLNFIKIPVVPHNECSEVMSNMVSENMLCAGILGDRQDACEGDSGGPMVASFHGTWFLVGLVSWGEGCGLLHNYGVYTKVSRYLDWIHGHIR
Sequence of APC (P04070 43-197 limits assumed): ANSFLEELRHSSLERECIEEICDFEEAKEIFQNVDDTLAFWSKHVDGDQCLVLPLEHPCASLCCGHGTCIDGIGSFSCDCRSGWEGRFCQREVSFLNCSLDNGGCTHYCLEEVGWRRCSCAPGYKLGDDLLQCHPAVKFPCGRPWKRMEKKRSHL
Protocol: A: 70 μg of DrKIn-I in 0.1 ml equilibrating buffer (20 mM Tris-HCl, pH 8.0) was applied to a 5 ml HiTrap Heparin column and eluted with a 50 ml gradient from 0.0-1.0 M NaCl. […] The thin lines represent the global fit to the response data. […] Results shown are means±SD of three experiments. Representative binding traces are shown.
Biacore T200 (GE Healthcare) was used for analysis. APC or PC dissolved in 10 mM acetate buffer (pH 5.0) was immobilized on a CM5 sensor chip to a response unit (RU) of 1000 with an amine coupling kit. Associations and dissociations of DrKIn-I were performed in 10 mM HEPES (N-2-hydroxyethylpiperazine-N′-2-ethanesulfonic acid; pH 7.4), 150 mM NaCl, 3 mM EDTA (ethylenediaminetetraacetic acid) and 0.05% P20 with a flow rate of 60 μl/min. […] Binding kinetics were determined by global fitting to 1:1 Langmuir binding model using the Biaevaluation software (GE Healthcare).

Substance: DrKIn-I (CGGNDNNFETRKKCRQTCGAPRKGRPT)
- inhibitory activity against thrombin (thrombin): no inhibitory activities
- inhibitory activity against factor Xa (factor Xa (FXa)): no inhibitory activities
- thrombin generation [1]: thrombin generation reached that observed in the absence of APC activity
- DrKIn-I concentration correcting ETP to normal levels (FVIII-deficient plasma): 60 nM
- DrKIn-I concentration correcting peak thrombin to normal levels (FVIII-deficient plasma): 130 nM
- DrKIn-I concentration correcting ETP to normal levels (FIX-deficient plasma): 160 nM
- peak thrombin level relative to normal plasma (partial correction) (FIX-deficient plasma): approximately 85%
- clotting time [2]: dose-dependently decreased the clotting time
- association rate constant (APC; 1:1 Langmuir model): 1.3±0.8×10^7 M^−1 s^−1 and ~1.3×10^7 M^−1 s^−1 and 1.7×10^7 M^−1 s^−1
- dissociation rate constant (APC; 1:1 Langmuir model): 3.4±2.2×10^−2 s^−1
- Kd (APC; 25° C.): ~2.6 nM
